Assay results: PubChem BioAssay AID2740 (NMMLSC, 2010)
“And” between values parts separate entries of the source, which are not always exact repeats. Equal values may be shown once. The source made the active and inactive calls.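 How the source made its calls: active means compounds whose fitted half-maximal concentration for changing the GFP signal is at or below a set limit; inactive means the rest.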

Assay: TOR pathway RPL19A-GFP modulators, concentration series – cell-based, S. cerevisiae, flow cytometry, MLPCN hits, dose response (AID 2740);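 further: background is signal of the same compound in parental non-GFP s288c yeast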
Conditions: S. cerevisiae RPL19A-GFP strain, flow cytometry fluorescence, 3 h; at 33 µM (top of the series)

Row | SMILES | GFP fluorescence, lower = active (kMESF (background-subtracted))
1 | C[n+]1ccc(/C=C/c2c[nH]c3ccccc23)cc1 | 53.8 (inactive)
2 | CCC(C)/C(C)=N/NC(=O)c1ccc(COc2ccc(Cl)c(C)c2)cc1 (stereo unspecified) | 44.9 (inactive)
3 | CCCOc1ccc(C(=O)NNC(=S)NC(=O)CC)cc1 | 50.5 (inactive)
4 | CCC1(c2ccccc2)ON(c2c(Br)cccc2Br)C1=O (stereo unspecified) | 34.8 (inactive)
5 | Cc1nc2ccc(NC(=O)c3oc4ccc(F)cc4c3C)cc2s1 | 39 (inactive)
6 | Cc1ccc(O)c(N=Nc2nccs2)c1 | 32.1 (inactive)
7 | O=C1N(c2ccccc2C(F)(F)F)O[C@]1(c1ccccc1)C1CCCC1 | 36.6 (inactive)
8 | Cc1ccc2nc(/C(C#N)=C/c3ccc(O)c(O)c3)[nH]c2c1 | 43.8 (inactive)
9 | O=C(Oc1c(Cl)cc(Cl)c2cccnc12)c1ccco1 | 34.9 (inactive)
10 | CCN1C(=O)/C(=C\C(=O)c2cccs2)c2cc(Br)ccc21 | 34.5 (inactive)
11 | COc1cc(NC(=O)c2ccc(C)cc2)ccc1NC(=O)c1cc2ccccc2o1 | 40.8 (inactive)
12 | COc1ccc2c(/C=C/c3cc[n+](C)cc3)c[nH]c2c1 | 39 (inactive)
13 | O=C(Nc1ccc(NC(=O)c2cc3ccccc3o2)cc1)c1ccco1 | 39.7 (inactive)
14 | CC(=O)n1cc(C(C[N+](=O)[O-])SCCN)c2ccccc21 (stereo unspecified) | 21.4 (inactive)
15 | O=C1c2ccccc2C(=O)C2OC12 (stereo unspecified) | 29.2 (inactive)
16 | Cc1cc(S(=O)(=O)ON2C(=O)c3ccccc3C2=O)ccc1F | 43.3 (inactive)
17 | O=C(c1ccc(C(=O)N2CCCc3ccccc32)s1)N1CCCc2ccccc21 | 38.1 (inactive)
18 | Cc1cccc(/C=C/C(=O)c2ccc([N+](=O)[O-])o2)c1 | 16.1 (inactive)
19 | CC(C)[C@@]1(c2ccccc2)ON(c2ccccc2C(F)(F)F)C1=O | 40.1 (inactive)
20 | O=c1/c(=C/c2cccc3ccccc23)sc2ncnn12 | 50.3 (inactive)
21 | CC(C)Cn1c(=O)c(C(=O)Nc2ccncc2)c(O)c2ccccc21 | 5.71 (inactive)

Row | SMILES | GFP fluorescence, lower = active (kMESF (background-subtracted))
22 | Cc1c(N2C(=O)/C(=C\c3ccccc3O)SC2=S)c(=O)n(-c2ccccc2)n1C | 38.7 (inactive)
23 | Cc1ccc(C2=NN(S(C)(=O)=O)C(c3ccc4c(c3)OCO4)C2)cc1 (stereo unspecified) | 44.8 (inactive)
24 | O=[N+]([O-])c1ccc(O)c2ncccc12 | 25.5 (inactive) and 19.3 (inactive)
25 | Cc1ccccc1[C@@]1(C)ON(c2ccccc2C(F)(F)F)C1=O | 40.6 (inactive)
26 | CC(=O)c1ccc(N2CCN(C(=O)c3ccc(Br)cc3)CC2)c(F)c1 | 46.1 (inactive)
27 | CCOC(=O)CSC1=NC(=O)/C(=C/c2ccc(OC)cc2)S1 | 43.8 (inactive)
28 | O=C(c1ccc(Cl)cc1)N1CCN(c2cccc3[nH]ccc23)CC1 | 41.9 (inactive)
29 | O=C1c2ccccc2C(=O)N1OS(=O)(=O)c1ccccc1 | 43.2 (inactive)
30 | CC(=O)N(C(C)=O)c1ncnc2c1c(-c1ccc(Cl)cc1)nn2C(C)(C)C | 42.9 (inactive)
31 | COc1cc(/C=C2\C(=O)N(CCC#N)N=C2C)c(Br)cc1OC(C)C | 39.9 (inactive)
32 | CC1(C)OC(c2ccccc2)=C/C(=C/C=C2C(=O)NC(=S)NC2=O)O1 | 37 (inactive)
33 | Cc1ccc(N=c2ssnc2Cl)cc1 | 23 (inactive)
34 | COC(CNC(=O)c1ccc2c3c(onc13)-c1ccccc1C2=O)OC | 14.8 (inactive)
35 | O=C(Nc1ccc(N2CCOCC2)cc1)C1CCN(S(=O)(=O)c2ccc3c(c2)OCCO3)CC1 | 34.9 (inactive)
36 | CN(C)c1ccc(N=Cc2nc(-c3ccccc3)oc2OC(=O)c2ccccc2)cc1 | 44.1 (inactive)
37 | Cc1cccc(C(=O)NNC(=S)NC(=O)c2ccccc2)c1 | 48.3 (inactive)
38 | COc1cc(/C=C2\C(=O)ON=C2c2ccccc2)cc(Br)c1O | 37.3 (inactive)
39 | N#Cc1cc([N+](=O)[O-])c(-n2nnc3ccccc32)c([N+](=O)[O-])c1 | 43.3 (inactive)
40 | CC(=O)NN1C(=O)/C(=C/c2ccc(Br)o2)SC1=S | 40.5 (inactive)
41 | Cc1ccc(C)c(/C=C/C(=O)c2ccccc(=O)c2O)c1 | 15.8 (inactive)
42 | CC(C)(C)C(=O)NC(=S)NNC(=O)c1ccc(-c2ccccc2)cc1 | 40.7 (inactive)

Row | SMILES | GFP fluorescence, lower = active (kMESF (background-subtracted))
43 | Oc1c(Br)cc(Br)cc1C=Nc1ccc2c(c1)OCO2 | 40 (inactive)
44 | CCn1c(=O)c(C(C)=O)c(O)c2ccccc21 | 47 (inactive)
45 | C#CCOc1c(Br)cc(/C=C2/C(=O)ON=C2C)cc1OC | 32.9 (inactive)
46 | Cc1ccc2c(c1)c(/C=C/c1cc[n+](C)cc1)c(C)n2C | 40.7 (inactive)
47 | CCOC(=O)CSC1=NC(=O)/C(=C/c2ccc(Br)cc2)S1 | 38.5 (inactive)
48 | O=C(Nc1nnc(-c2ccc(F)cc2)o1)c1cc(Cl)sc1Cl | 51.4 (inactive)
49 | O=C(COc1c(Br)cc(Br)c2cccnc12)N1CCc2ccccc2C1 | 45.4 (inactive)
50 | Cc1cc(=O)oc2cc(Oc3ccc([N+](=O)[O-])cc3C(F)(F)F)ccc12 | 44.2 (inactive)
51 | Cc1ccc(NC(=O)c2nc(S(=O)(=O)Cc3ccccc3)ncc2Cl)cc1 | 43 (inactive)
52 | COc1ccc(/C=C2/C(=O)ON=C2c2ccccc2)cc1OC | 39.5 (inactive)
53 | COc1ccc(N=Nc2ccc(O)c3ncccc23)cc1 | 37.9 (inactive)
54 | CC(=O)N(C1=C(Cl)C(=O)c2ccccc2C1=O)C1CCCCC1 | -1.82 (inactive)
55 | Cc1ccc(C2=NOC(=O)/C2=C\c2ccc(C)o2)cc1 | 22 (inactive)
56 | COc1cc(N=c2ssnc2Cl)c(OC)cc1Cl | 22.5 (inactive) and 23.2 (inactive)
57 | O=C(Nc1ccccc1)ON=C1CCCC1 | 42.1 (inactive)
58 | Oc1ccc(CNc2ccccc2)c2cccnc12 | 42.2 (inactive)
59 | O=C1c2cccc3c([N+](=O)[O-])ccc(c23)C(=O)N1CCc1ccccn1 | 47.1 (inactive)
60 | Oc1c(CN2CCN(c3ccc(F)cc3)CC2)cc(Cl)c2cccnc12 | 40.4 (inactive)
61 | CN(Cc1cnc2nc(N)nc(N)c2n1)c1ccc(C(=O)N[C@@H](CCC(=O)O)C(=O)O)cc1 | 39.3 (inactive) and 38.8 (inactive)
62 | C=C1C(O)[C@@H]2O[C@]3(CC[C@H](/C=C/C(C)[C@@H]4CC(C)=CC5(O[C@H](C[C@@](C)(O)C(=O)O)CCC5O)O4)O3)CC[C@H]2O[C@@H]1C(O)CC(C)[C@H]1OC2(CCCCO2)CCC1C (stereo partly specified) | 41.3 (inactive)
63 | N#Cc1ccc(N=c2ssnc2Cl)cc1 | 42 (inactive)

Row | SMILES | GFP fluorescence, lower = active (kMESF (background-subtracted))
64 | O=C1Nc2ccc(Br)cc2/C1=C/C(=O)c1ccc2c(c1)OCO2 | 40.6 (inactive)
65 | O=C1C(Cl)=C(N2CCN(Cc3ccccc3)CC2)C(=O)N1c1ccccc1 | 40.2 (inactive)
66 | Cc1cc(C)c(S(=O)(=O)N2CCC(C(=O)NCc3ccc(Cl)cc3Cl)CC2)c(C)c1 | 31.7 (inactive)
67 | CC(C)CC(=O)NC(=S)Nc1nc(-c2ccccc2)cs1 | 38.4 (inactive)
68 | CCOC(=O)Cn1cc(/C=C/[N+](=O)[O-])c2ccccc21 | 39.5 (inactive)
69 | CCOC(=O)C1=C(O)c2ccccc2C(=O)/C1=C\c1ccc(C)cc1 | -7.18 (inactive)
70 | O=c1cc(-c2ccccc2)cc(-c2ccccc2)n1O | 15.4 (inactive)
71 | O=C(Nc1nnc(-c2ccc(F)cc2)o1)c1cccc([N+](=O)[O-])c1 | 43.5 (inactive)
72 | CS(=O)(=O)N1N=C(c2ccccc2)CC1c1ccc2c(c1)OCO2 (stereo unspecified) | 36.9 (inactive)
73 | c1ccc(-c2cccc(-c3ccccn3)n2)nc1 | 36.2 (inactive)
74 | O=C(Oc1ccnc2cc(Cl)ccc12)N1CCCCCC1 | 25.6 (inactive)
75 | Cc1cc(NC(c2ccc(Cl)cc2)c2ccc3cccnc3c2O)no1 (stereo unspecified) | 39.3 (inactive)
76 | CC[C@]1(c2ccccc2C)ON(c2ccccc2C(F)(F)F)C1=O | 40 (inactive)
77 | O=C(OCC(=O)N1CCN(C(=O)c2ccco2)CC1)c1cc(-c2ccc(Cl)c(Cl)c2Cl)nc2ccccc12 | 31.8 (inactive)
78 | O=C(OCn1ncc(Br)c(Br)c1=O)c1c(F)cccc1F | 37.9 (inactive)
79 | COc1ccc(N2C(=O)CC(Sc3ncn[nH]3)C2=O)c(OC)c1 (stereo unspecified) | 42.2 (inactive)
80 | CCc1ccc(C(=O)/C=C/c2ccc([N+](=O)[O-])o2)cc1 | 48.7 (inactive)
81 | Cc1c(NC2=C(Cl)C(=O)N(c3ccccc3Cl)C2=O)c(=O)n(-c2ccccc2)n1C | 38.7 (inactive)
